Results published in patent publication US20260347364A1, “PYRAZOLO[4,3-F]QUINAZOLINE DERIVATIVES AS MODULATORS OF G12D MUTANT KRAS USEFUL FOR THE TREATMENT OF CANCER” (JAZZ PHARMACEUTICALS IRELAND LTD., priority 2023, published 2026).

How the values were obtained:
KRAS G12D = target: T1, KRAS G12D (Homo sapiens, UniProt P01116, G12D); test: HTRF nucleotide exchange assay, KRAS G12D; type: biochemical; conditions: class symbols; for IC50: HTRF nucleotide exchange assay (NEA)
T1 construct: aa1-188 KRAS WT, HRAS WT, NRAS WT, or KRAS containing the G12D

KRAS WT = target: T2, KRAS WT (Homo sapiens, UniProt P01116); test: HTRF nucleotide exchange assay, KRAS WT; type: biochemical; conditions: class symbols; for IC50: HTRF nucleotide exchange assay (NEA)
T2 construct: aa1-188 KRAS WT

| SMILES | KRAS^G12D NEA (KRAS G12D) | KRAS^WT NEA (KRAS WT) | IC50 (KRAS G12D) [nM] | IC50 (KRAS WT) [nM] |
| --- | --- | --- | --- | --- |
| Cn1cc2c(n1)c(-c1ncc(F)c3sc(N)c(C#N)c13)cc1nc(OC[C@@]34CCCN3C[C@H](F)C4)nc(N3CCC[C@@](C)(O)C3)c12 [Example 106, 2-amino-7-fluoro-4-[2-methyl-7-[[(2R,8S)-2-fluoro-1,2,3,5,6,7-hexahydropyrrolizin-8-yl]methoxy]-9-[(3R)-3-hydroxy-3-methyl-1-piperidyl]pyrazolo[4,3-f]quinazolin-4-yl]thieno[3,2-c]pyridine-3-carbonitrile] | D (<49% inhibition at 10 μM) | D (<49% inhibition at 10 μM) |  |  |
| CCc1c(F)ccc2cc(O)cc(-c3cc4nc(OCC5CCCCN5C)nc(N5CCCOCC5)c4c4cn(C)nc34)c12 (stereo not shown) [Example 19, 5-ethyl-6-fluoro-4-[2-methyl-7-[(1-methyl-2-piperidyl)methoxy]-(1,4-oxazepan-4-yl)pyrazolo[4,3-f]quinazolin-4-yl]naphthalen-2-ol] |  |  | 100 to 10000 | 100 to 10000 |
| CCc1c(F)ccc2cc(O)cc(-c3cc4nc(OC[C@@]56CCCN5C[C@H](F)C6)nc(N5CCC(CO)C5)c4c4cn(C)nc34)c12 (stereo partly drawn) [Example 122, 5-ethyl-6-fluoro-4-[9-[3-(hydroxymethyl)pyrrolidin-1-yl]-2-methyl-7-[[(2R,8S)-2-fluoro-1,2,3,5,6,7-hexahydropyrrolizin-8-yl]methoxy]pyrazolo[4,3-f]quinazolin-4-yl]naphthalen-2-ol] |  |  | ≤ 10 | ≤ 10 |
| CCc1c(F)ccc2cc(O)cc(-c3cc4nc(OC[C@@]56CCCN5C[C@H](F)C6)nc(N5CC6CNCC6C5)c4c4cn(C)nc34)c12 (stereo partly drawn) [Example 25, 4-(2,7-diazaspiro[4.4]nonan-2-yl)-6-(8-ethyl-7-fluoro-3-hydroxy-1-naphthyl)-2-[[(2R,8S)-2-fluoro-1,2,3,5,6,7-hexahydropyrrolizin-8-yl]methoxy]-7H-pyrrolo[3,4-d]pyrimidin-5-one] |  |  | ≤ 10 | 100 to 10000 |
| CCc1c(F)ccc2cc(O)cc(-c3cc4nc(OCC5(C)C[C@@H](O)CN5C)nc(N5CCCn6nc(C(=O)N(C)C)cc6C5)c4c4cn(C)nc34)c12 (mixture of isomers) [Example 68, 5-[4-(8-ethyl-7-fluoro-3-hydroxy-1-naphthyl)-2-methyl-7-[rac-(4R)-4-hydroxy-1,2-dimethyl-pyrrolidin-2-yl]methoxy]pyrazolo[4,3-f]quinazolin-9-yl]-N,N-dimethyl-4,6,7,8-tetrahydropyrazolo[1,5-a][1,4]diazepine-2-carboxamide] |  |  | ≤ 10 | ≤ 10 |
| CCc1c(F)ccc2cc(O)cc(-c3c(F)c4nc(OCC5(C#N)CCOC5)nc(N5CC6CCC(C5)N6)c4c4cn(C)nc34)c12 (stereo not shown) [Example 168, 3-[[9-(3,8-diazabicyclo[3.2.1]octan-3-yl)-4-(8-ethyl-7-fluoro-3-hydroxy-1-naphthyl)-5-fluoro-2-methyl-pyrazolo[4,3-f]quinazolin-7-yl]oxymethyl]tetrahydrofuran-3-carbonitrile] |  |  | ≤ 10 | 100 to 10000 |
| CCc1c(F)ccc2cc(O)cc(-c3cc4nc(OCC5(CN6CCOCC6)CC5)nc(N5CCCn6nc(C(=O)N(C)C)cc6C5)c4c4cn(C)nc34)c12 [Example 69, 5-[4-(8-ethyl-7-fluoro-3-hydroxy-1-naphthyl)-2-methyl-7-[[1-(morpholinomethyl)cyclopropyl]methoxy]pyrazolo[4,3-f]quinazolin-9-yl]-N,N-dimethyl-4,6,7,8-tetrahydropyrazolo[1,5-a][1,4]diazepine-2-carboxamide] |  |  | ≤ 10 | 10 to 100 |
| CCc1c(F)ccc2cc(O)cc(-c3c(F)c4nc(OCC5(CN6CCC(OC)CC6)CC5)nc(N5CCOCC(C)(O)C5)c4c4cn(C)nc34)c12 (stereo not shown) [Example 187, 4-[4-(8-ethyl-7-fluoro-3-hydroxy-1-naphthyl)-5-fluoro-7-[[1-[(4-methoxy-1-piperidyl)methyl]cyclopropyl]methoxy]-2-methyl-pyrazolo[4,3-f]quinazolin-9-yl]-6-methyl-1,4-oxazepan-6-ol] |  |  | ≤ 10 | ≤ 10 |
| Cc1cc(N)nc(-c2cc3nc(OC[C@@]45CCCN4C[C@H](F)C5)nc(N4CCCn5nc(C(=O)N(C)C)cc5C4)c3c3cn(C)nc23)c1C(F)(F)F [Example 77, 5-[4-[6-amino-4-methyl-3-(trifluoromethyl)-2-pyridyl]-7-[[(2R,8S)-2-fluoro-1,2,3,5,6,7-hexahydropyrrolizin-8-cyl]methoxy]-2-methyl-pyrazolo[4,3-f]quinazolin-9-yl]-N,N-dimethyl-4,6,7,8-tetrahydropyrazolo[1,5-a][1,4]diazepine-2-carboxamide] |  |  | 100 to 10000 | 100 to 10000 |
| CCc1c(F)ccc2cc(O)cc(-c3c(F)c4nc(OCC5(CN(C)C)CC5)nc(N5CCOCC(C)(O)C5)c4c4cn(C)nc34)c12 (stereo not shown) [Example 157, 4-[7-[[1-[(dimethylamino)methyl]cyclopropyl]methoxy]-4-(8-ethyl-7-fluoro-3-hydroxy-1-naphthyl)-5-fluoro-2-methyl-pyrazolo[4,3-f]quinazolin-9-yl]-6-methyl-1,4-oxazepan-6-ol] |  |  | ≤ 10 | ≤ 10 |
| CCc1c(F)ccc2cccc(-c3cc4nc(OC[C@@]56CCCN5C[C@H](F)C6)nc(N5CCCn6nc(C(=O)N(C)C)cc6C5)c4c4cn(C)nc34)c12 [Example 63, 5-[4-(8-ethyl-7-fluoro-1-naphthyl)-2-methyl-7-[[(2R,8S)-2-fluoro-1,2,3,5,6,7-hexahydropyrrolizin-8-yl]methoxy]pyrazolo[4,3-f]quinazolin-9-yl]-N,N-dimethyl-4,6,7,8-tetrahydropyrazolo[1,5-a][1,4]diazepine-2-carboxamide] |  |  | ≤ 10 | 10 to 100 |
| CCc1c(F)ccc2cc(O)cc(-c3cc4nc(OCC5(CN6CCCC6)CC5)nc(N5CCCn6nc(C(=O)N(C)C)cc6C5)c4c4cn(C)nc34)c12 [Example 52] |  |  | ≤ 10 | 10 to 100 |
| CCc1c(F)ccc2cc(O)cc(-c3cc4nc(OC[C@@]56CCCN5C[C@H](F)C6)nc(N5CCCn6nc(C(=O)N7CCOCC7)cc6C5)c4c4cn(C)nc34)c12 [Example 24, [5-[4-(8-ethyl-7-fluoro-3-hydroxy-1-naphthyl)-2-methyl-7-[[(2R,8S)-2-fluoro-1,2,3,5,6,7-hexahydropyrrolizin-8-yl]methoxy]pyrazolo[4,3-f]quinazolin-9-yl]-4,6,7,8-tetrahydropyrazolo[1,5-a][1,4]diazepin-2-yl]-morpholino-methanone] |  |  | ≤ 10 | ≤ 10 |
| Cc1cc(N)nc(-c2cc3nc(OCC45CCCN4CC(F)C5)nc(N4CCCOCC4)c3c3cn(C)nc23)c1C(F)(F)F [Example 16, 4-methyl-6-[2-methyl-9-(1,4-oxazepan-4-yl)-7-[(2R,8S)-2-fluoro-1,2,3,5,6,7-hexahydropyrrolizin-8-yl]methoxy]pyrazolo[4,3-f]quinazolin-4-yl]-5-(trifluoromethyl)pyridin-2-amine] | D (<49% inhibition at 10 μM) | D (<49% inhibition at 10 μM) |  |  |
| CCc1c(F)ccc2cc(O)cc(-c3cc4nc(OC[C@@]56CCCN5C[C@H](F)C6)nc(N5CCCC(C)(C#N)C5)c4c4cn(C)nc34)c12 (stereo partly drawn) [Example 132, 1-[4-(8-ethyl-7-fluoro-3-hydroxy-1-naphthyl)-2-methyl-7-[[(2R,8S)-2-fluoro-1,2,3,5,6,7-hexahydropyrrolizin-8-yl]methoxy]pyrazolo[4,3-f]quinazolin-9-yl]-3-methyl-piperidine-3-carbonitrile] |  |  | 100 to 10000 | 100 to 10000 |
| Cc1c(-c2ccc(F)c3sc(N)c(C#N)c23)c2nn(C)cc2c2c(N3CCCn4nc(C(=O)N(C)C)cc4C3)nc(OC[C@@]34CCCN3C[C@H](F)C4)nc12 [Example 101, 5-[4-(2-amino-3-cyano-7-fluoro-benzothiophen-4-yl)-7-[[(2R,8S)-2-fluoro-1,2,3,5,6,7-hexahydropyrrolizin-8-yl]methoxy]-2,5-dimethyl-pyrazolo[4,3-f]quinazolin-9-yl]-N,N-dimethyl-4,6,7,8-tetrahydropyrazolo[1,5-a][1,4]diazepine-2-carboxamide] |  |  | ≤ 10 | ≤ 10 |
| C=Cc1c(F)ccc2cc(O)cc(-c3c(C)c4nc(OC[C@@]56CCCN5C[C@H](F)C6)nc(N5CCCn6nc(C(=O)N(C)C)cc6C5)c4c4cn(C)nc34)c12 [Example 98, 5-[4-(7-fluoro-3-hydroxy-8-vinyl-1-naphthyl)-2,5-dimethyl-7-[[(2R,8S)-2-fluoro-1,2,3,5,6,7-hexahydropyrrolizin-8-yl]methoxy]pyrazolo[4,3-f]quinazolin-9-yl]-N,N-dimethyl-4,6,7,8-tetrahydropyrazolo[1,5-a][1,4]diazepine-2-carboxamide] |  |  | ≤ 10 | ≤ 10 |
| CCc1c(F)ccc2cc(O)cc(-c3cc4nc(OC[C@@H]5C[C@H](C)CN5)nc(N5CCCn6nc(C(=O)N(C)C)cc6C5)c4c4cn(C)nc34)c12 [Example 49, 5-[4-(8-ethyl-7-fluoro-3-hydroxy-1-naphthyl)-2-methyl-7-[[(2S,4S)-4-methylpyrrolidin-2-yl]methoxy]pyrazolo[4,3-f]quinazolin-9-yl]-N,N-dimethyl-4,6,7,8-tetrahydropyrazolo[1,5-a][1,4]diazepine-2-carboxamide] | D (<49% inhibition at 10 μM) |  |  | 100 to 10000 |
| CCc1c(F)ccc2cc(O)cc(-c3c(C)c4nc(OC[C@@H]5C[C@@H](F)CN5)nc(N5CCOCC(C)(O)C5)c4c4cn(C)nc34)c12 (stereo partly drawn) [Example 140, 4-[4-(8-ethyl-7-fluoro-3-hydroxy-1-naphthyl)-2,5-dimethyl-7-[[(2S,4R)-4-fluoropyrrolidin-2-yl]methoxy]pyrazolo[4,3-f]quinazolin-9-yl]-6-methyl-1,4-oxazepan-6-ol] |  |  | ≤ 10 | ≤ 10 |
| C#Cc1c(F)ccc2cc(O)cc(-c3cc4nc(OC[C@@]56CCCN5C[C@H](F)C6)nc(N5CCCCC(C)(O)C5)c4c4cn(C)nc34)c12 (stereo partly shown) [Example 43] |  |  | ≤ 10 | ≤ 10 |
